From ChEMBL document CHEMBL1125280, “Direct prediction of dissociation constants (pKa's) of clonidine-like imidazolines, 2-substituted imidazoles, and 1-methyl-2-substituted-imidazoles from 3D structures using a comparative molecular field analysis (CoMFA) approach” (J Med Chem, 1991)

Experiment: Ionization constant (pKa)
Assay type: physicochemical

| SMILES | pKa |
| --- | --- |
| Cn1ccnc1N | 8.54 |
| c1ccn(-c2ncc[nH]2)c1 | 5.36 |
| Clc1cccc(Br)c1N=C1NCCN1 | 7.93 |
| Cc1cccc(Cl)c1N=C1NCCN1 | 9.4 |
| Nc1ncc[nH]1 | 8.46 |
| Cn1ccnc1F | 2.3 |
| Brc1cc(Br)c(N=C2NCCN2)c(Br)c1 | 7.46 |
| Fc1cccc(Cl)c1N=C1NCCN1 | 8.01 |
| O=[N+]([O-])c1cc(Cl)c(N=C2NCCN2)c(Cl)c1 | 6.86 |
| Cc1cccc(C)c1N=C1NCCN1 | 10.5 |
| CCc1cccc(CC)c1NC1=NCCN1 | 10.6 |
| COc1cc(Cl)c(N=C2NCCN2)c(Cl)c1 | 8.57 |
| Cn1ccnc1 [1-METHYLIMIDAZOLE] | 7.12 |
| Cn1ccnc1Br | 3.82 |
| Clc1ccc(Cl)c(N=C2NCCN2)c1 | 8.5 |
| Cc1cc(Cl)c(N=C2NCCN2)c(Cl)c1 | 8.29 |
| Cc1cc(Cl)cc(C)c1N=C1NCCN1 | 10.2 |
| CCc1ncc[nH]1 | 7.73 |
| Cc1cc(C)c(N=C2NCCN2)c(C)c1 | 10.8 |
| c1ccc(-c2ncc[nH]2)cc1 [2-PHENYLIMIDAZOLE] | 6.48 |
| Cn1ccnc1[N+](=O)[O-] | -0.48 |

| SMILES | pKa |
| --- | --- |
| Clc1ncc[nH]1 | 3.55 |
| Fc1ncc[nH]1 | 2.4 |
| Clc1cc(Br)cc(Cl)c1N=C1NCCN1 | 7.72 |
| Cc1cc(C)c(N=C2NCCN2)c(Cl)c1 | 9.59 |
| Cc1ccc(N=C2NCCN2)c(C)c1 | 10.6 |
| Cc1ccccc1N=C1NCCN1 | 10.2 |
| Cc1ccc(NC2=NCCN2)c(Cl)c1 [TOLONIDINE] | 9.41 |
| Cc1ncc[nH]1 | 7.86 |
| Brc1cccc(Br)c1N=C1NCCN1 | 7.8 |
| CSc1ncc[nH]1 | 5.95 |
| Clc1cccc(N=C2NCCN2)c1Cl | 8.55 |
| O=[N+]([O-])c1ncc[nH]1 [AZOMYCIN] | -0.81 |
| Fc1cccc(F)c1N=C1NCCN1 | 8.18 |
| Clc1ccccc1N=C1NCCN1 | 9.15 |
| Cc1cc(Cl)cc(Cl)c1N=C1NCCN1 | 9.03 |
| Clc1cc(Cl)c(N=C2NCCN2)c(Cl)c1 | 7.75 |
| Cc1cc(Br)cc(C)c1N=C1NCCN1 | 10.2 |
| c1ccc(NC2=NCCN2)cc1 | 10.1 |
| Clc1ccc(N=C2NCCN2)c(Cl)c1 | 8.73 |
| Cc1cc(Cl)ccc1N=C1NCCN1 | 9.99 |
| Brc1ncc[nH]1 | 3.79 |
